In US20040157930A1, “Histone deacetylase enzyme-inhibiting derivatives of hydroxamic acid as new cytokine synthesis-inhibiting anti-inflammatory drugs” (priority 2001, published 2004):

Legend:
[1] = test system: IFNγ; experiment: IFNγ synthesis by PBMCs stimulated with IL-12 and IL-18 (ELISA); type: cell-based; conditions: Homo sapiens; PBMC, IL-12 10 ng/ml + IL-18 20 ng/ml, 48 h; read-out: IFNγ (from IL-12 + IL-18) IC50
Protocol: Cytokine IFNγ is produced by the T lymphocytes following their stimulation by pro-inflammatory cytokines, especially IL-12 and IL-18 (Dinarello C. A. and Moldawer L. L. Proinflammatory and anti-inflammatory cytokines in rheumatoid arthritis. A primer for clinicians. 2nd Edition, Amgen Inc., 2000).
At the end, the cells were stimulated for 48 hours in the presence of the compound by simultaneous addition of recombinant IL-12 (10 ng/ml) and recombinant IL-18 (20 ng/ml). The quantity of IFNγ produced was determined with a commercial ELISA assay.

[2] = test system: mouse peritoneal macrophages; experiment: Nitric oxide production from mouse peritoneal macrophages (Griess); type: cell-based, C57BLy6 mice; conditions: TNF-α plus IFN-γ stimulation, 24 h
Protocol: C57BLy6 mice were injected i.p. with 1 ml of sterile thioglycolate broth and killed after 5 days, and macrophages were isolated using instillation of 10 ml of ice-cold PBS into the peritoneal cavity. The cells were centrifuged (350×g) and 3 ml of erythrocyte lysing reagent (PharMingen) was added for 10 min.
Seven milliliters of DMEM containing 5% FCS was added and the cells were centrifuged at 4° C. The cells were resuspended in DMEM at 1 million per ml and 0.5 ml were added to wells of a 48-well plate. […] After 24 h, NO levels in the supernatant were determined using the Griess reagent as described in Am.J.Physiol.Cell Physiol. (2001), 280, C441-C450.

[3] = test system: IL-12 (p70); experiment: Inhibition of IL-12 production by cultured monocytes (ELISA); type: cell-based; conditions: nonadherent human monocytes
Protocol: Venous blood was obtained from consenting adults and separated over Ficoll-Hypaque. The PBMC fraction was washed and adjusted to five million cells per ml. […] The cells were stimulated with LPS, soluble OKT3, or cytokines, and after 24 or 48 h At 37° C. the supernatant was removed and frozen for cytokine assays. Monocytes were isolated by centrifugation over Percoll, washed, suspended in RPMI with 10% FCS, and aliquoted at 2 million cells per ml in Petriperm Teflon-coated culture dishes (Sigma). The ELISA for human IL-12 (p70) was purchased from Endogen (Woburn, Mass.).

[4] = test system: DSS-induced colitis; experiment: Dextran-induced colitis; type: in vivo, C57BL/6 mice; conditions: for Complete clinical score: 0 (healthy) to 4; for Weight: in g; for Bleeding / Stool consistency as score: score 0-4; for Colon length: post mortem day 10
Protocol: Female, 8 week-old C57BL/6 mice (The Jackson Laboratories, Bar Habor, Me.) weighing 20-22 g were used in this study. The animals were housed in rooms at a controlled temperature and a 12 h day/night rhythm. They were fed standard mice chow pellets ad libitum, had free access to tap water supplied in bottles, and were acclimatized to the conditions at least seven days before they were used in experiments. Mice were killed by cervical dislocation under isoflurane anesthesia (Fort Dodge, Iowa City, Iowa).
; molecular weight 40 kDa; ICN, Aurora, Ohio) dissolved in sterile, distilled water ad libitum from day one to five followed by a five day observation period. […]. Body weights, occult blood or the presence of gross blood per rectum, and stool consistency were determined daily. Two investigators blinded to the protocol assessed the clinical score (table 1). Weight loss <1% compared to day 1 was counted as 0 points, weight loss of 1 to <5% as 1 point, 5 to <9.9% as 2 points, 10 to 20% as 3 points and more than 20% as 4 points. […] Bleeding was scored 0 points for no blood in hemoccult, 2 points for positive hemoccult, and 4 points for gross bleeding. These scores (body weight, stool consistency, rectal bleeding) were added and divided by 3 resulting in a total clinical score ranging from 0 (healthy) to 4 (maximal activity of colitis).
Post mortem (on day 10), the entire colon was removed from the caecum to the anus and the colon length was measured as an indirect marker of inflammation.

[5] = DSS + SAHA 10 mg/kg p.o. daily, day 1
[6] = DSS + SAHA 10 mg/kg p.o. daily, day 2
[7] = DSS + SAHA 10 mg/kg p.o. daily, day 3
[8] = DSS + SAHA 10 mg/kg p.o. daily, day 4
[9] = DSS + SAHA 10 mg/kg p.o. daily, day 5
[10] = DSS + SAHA 10 mg/kg p.o. daily, day 6
[11] = DSS + SAHA 10 mg/kg p.o. daily, day 7
[12] = DSS + SAHA 10 mg/kg p.o. daily, day 8
[13] = DSS + SAHA 10 mg/kg p.o. daily, day 9
[14] = DSS + SAHA 10 mg/kg p.o. daily, day 10
[15] = SAHA 10 mg/kg p.o. daily without DSS, day 1
[16] = SAHA 10 mg/kg p.o. daily without DSS, day 2
[17] = SAHA 10 mg/kg p.o. daily without DSS, day 3
[18] = SAHA 10 mg/kg p.o. daily without DSS, day 4
[19] = SAHA 10 mg/kg p.o. daily without DSS, day 5
[20] = SAHA 10 mg/kg p.o. daily without DSS, day 6
[21] = SAHA 10 mg/kg p.o. daily without DSS, day 7
[22] = SAHA 10 mg/kg p.o. daily without DSS, day 8
[23] = SAHA 10 mg/kg p.o. daily without DSS, day 9
[24] = SAHA 10 mg/kg p.o. daily without DSS, day 10

Which IC50 [1] does the source give for `O=C(CCCCCCC(=O)Nc1ccccc1)NO` [SAHA, suberoylanilide hydroxamic acid] here?
Its IC50 is 0.74 µM.

What about the “reduction of NO production” value ([2]; 200 nM) of the same molecule?
The value was 50%.

And the “reduction of NO production” value ([2]; 400 nM)?
The value was 80%.

And the “reduction of NO production” value ([2]; 800 nM)?
The value was 85%.

And the “reduction in LPS/IFN-γ-induced IL-12 production” value ([3]; 200 nM)?
Its value is 55%.

And the “reduction in LPS/IFN-γ-induced IL-12 production” value ([3]; 400 nM)?
Its value is 86%.

And the Complete clinical score [4, 5]?
Its Complete clinical score is 0.0 ± 0.0.

And the Weight [4, 5]?
Its Weight is 19.1 ± 0.2.

And the Bleeding [4, 5]?
The Bleeding was 0.0 ± 0.0.

And the “Stool consistency as score” value [4, 5]?
Its value is 0.0 ± 0.0.

And the Complete clinical score [4, 6]?
The Complete clinical score was 0.0 ± 0.0.

And the Weight [4, 6]?
Its Weight is 18.8 ± 0.2.

And the Bleeding [4, 6]?
Its Bleeding is 0.0 ± 0.0.

And the “Stool consistency as score” value [4, 6]?
The value was 0.0 ± 0.0.

And the Complete clinical score [4, 7]?
The Complete clinical score was 0.1 ± 0.1.

And the Weight [4, 7]?
Its Weight is 19.1 ± 0.3.

What about the Bleeding [4, 7] of the same molecule?
The Bleeding was 0.0 ± 0.0.

And the “Stool consistency as score” value [4, 7]?
The value was 0.0 ± 0.0.

What about the Complete clinical score [4, 8] of the same molecule?
The Complete clinical score was 0.2 ± 0.1.

And the Weight [4, 8]?
The Weight was 18.4 ± 0.4.

And the Bleeding [4, 8]?
Its Bleeding is 0.0 ± 0.0.

What about the “Stool consistency as score” value [4, 8] of the same molecule?
The value was 0.0 ± 0.0.

And the Complete clinical score [4, 9]?
The Complete clinical score was 0.7 + 0.3.

What about the Weight [4, 9] of the same molecule?
The Weight was 18.4 ± 0.4.

And the Bleeding [4, 9]?
The Bleeding was 1.2 ± 0.4.

And the “Stool consistency as score” value [4, 9]?
The value was 0.8 ± 0.4.

What about the Complete clinical score [4, 10] of the same molecule?
The Complete clinical score was 1.3 ± 0.3.

What about the Weight [4, 10] of the same molecule?
The Weight was 18.7 ± 0.3.

What about the Bleeding [4, 10] of the same molecule?
Its Bleeding is 2.4 ± 0.4.

And the “Stool consistency as score” value [4, 10]?
The value was 0.8 ± 0.4.

And the Complete clinical score [4, 11]?
Its Complete clinical score is 1.5 ± 0.1.

And the Weight [4, 11]?
The Weight was 18.0 ± 0.4.

And the Bleeding [4, 11]?
Its Bleeding is 2.0 ± 0.0.

And the “Stool consistency as score” value [4, 11]?
The value was 2.0 ± 0.0.

What about the Complete clinical score [4, 12] of the same molecule?
The Complete clinical score was 1.9 ± 0.1.

What about the Weight [4, 12] of the same molecule?
Its Weight is 16.9 ± 0.3.

And the Bleeding [4, 12]?
The Bleeding was 1.6 ± 0.4.

And the “Stool consistency as score” value [4, 12]?
Its value is 2.0 ± 0.0.

What about the Complete clinical score [4, 13] of the same molecule?
The Complete clinical score was 1.5 ± 0.4.

What about the Weight [4, 13] of the same molecule?
Its Weight is 16.6 ± 0.4.

What about the Bleeding [4, 13] of the same molecule?
Its Bleeding is 1.2 ± 0.4.

And the “Stool consistency as score” value [4, 13]?
Its value is 1.2 ± 0.4.

What about the Complete clinical score [4, 14] of the same molecule?
The Complete clinical score was 1.3 ± 0.4.

What about the Weight [4, 14] of the same molecule?
The Weight was 16.6 ± 0.4.

What about the Bleeding [4, 14] of the same molecule?
The Bleeding was 0.8 ± 0.4.

What about the “Stool consistency as score” value [4, 14] of the same molecule?
Its value is 1.2 ± 0.4.

What about the Colon length ([4]; DSS + SAHA 10 mg/kg p.o. daily, DSS + water 7.6 ± 0.2) of the same molecule?
The Colon length was 9.2 ± 0.2 cm.

And the Complete clinical score [4, 15]?
The Complete clinical score was 0.0 ± 0.0.

And the Weight [4, 15]?
Its Weight is 18.9 ± 0.3.

And the Bleeding [4, 15]?
The Bleeding was 0.0 ± 0.0.

And the “Stool consistency as score” value [4, 15]?
Its value is 0.0 ± 0.0.

What about the Complete clinical score [4, 16] of the same molecule?
Its Complete clinical score is 0.0 ± 0.0.

And the Weight [4, 16]?
The Weight was 18.8 ± 0.4.

What about the Bleeding [4, 16] of the same molecule?
Its Bleeding is 0.0 ± 0.0.

What about the “Stool consistency as score” value [4, 16] of the same molecule?
The value was 0.0 ± 0.0.

And the Complete clinical score [4, 17]?
The Complete clinical score was 0.0 ± 0.0.

What about the Weight [4, 17] of the same molecule?
The Weight was 18.9 ± 0.2.

What about the Bleeding [4, 17] of the same molecule?
The Bleeding was 0.0 ± 0.0.

What about the “Stool consistency as score” value [4, 17] of the same molecule?
Its value is 0.0 ± 0.0.

And the Complete clinical score [4, 18]?
Its Complete clinical score is 0.0 ± 0.0.

What about the Weight [4, 18] of the same molecule?
Its Weight is 18.9 ± 0.3.

And the Bleeding [4, 18]?
The Bleeding was 0.0 ± 0.0.

What about the “Stool consistency as score” value [4, 18] of the same molecule?
The value was 0.0 ± 0.0.

What about the Complete clinical score [4, 19] of the same molecule?
Its Complete clinical score is 0.0 ± 0.0.

And the Weight [4, 19]?
Its Weight is 19.0 ± 0.1.

And the Bleeding [4, 19]?
Its Bleeding is 0.0 ± 0.0.

And the “Stool consistency as score” value [4, 19]?
The value was 0.0 ± 0.0.

And the Complete clinical score [4, 20]?
Its Complete clinical score is 0.0 ± 0.0.

And the Weight [4, 20]?
Its Weight is 19.0 ± 0.3.

What about the Bleeding [4, 20] of the same molecule?
The Bleeding was 0.0 ± 0.0.

And the “Stool consistency as score” value [4, 20]?
Its value is 0.0 ± 0.0.

And the Complete clinical score [4, 21]?
The Complete clinical score was 0.0 ± 0.0.

What about the Weight [4, 21] of the same molecule?
Its Weight is 18.9 ± 0.1.

What about the Bleeding [4, 21] of the same molecule?
The Bleeding was 0.0 ± 0.0.

And the “Stool consistency as score” value [4, 21]?
The value was 0.0 ± 0.0.

What about the Complete clinical score [4, 22] of the same molecule?
Its Complete clinical score is 0.0 ± 0.0.

What about the Weight [4, 22] of the same molecule?
Its Weight is 19.0 ± 0.3.

And the Bleeding [4, 22]?
Its Bleeding is 0.0 ± 0.0.

What about the “Stool consistency as score” value [4, 22] of the same molecule?
The value was 0.0 ± 0.0.

And the Complete clinical score [4, 23]?
The Complete clinical score was 0.0 ± 0.1.

What about the Weight [4, 23] of the same molecule?
Its Weight is 19.1 ± 0.1.

And the Bleeding [4, 23]?
The Bleeding was 0.0 ± 0.0.

What about the “Stool consistency as score” value [4, 23] of the same molecule?
The value was 0.0 ± 0.0.

And the Complete clinical score [4, 24]?
Its Complete clinical score is 0.0 ± 0.0.

And the Weight [4, 24]?
Its Weight is 19.1 ± 0.2.

And the Bleeding [4, 24]?
Its Bleeding is 0.0 ± 0.0.

What about the “Stool consistency as score” value [4, 24] of the same molecule?
The value was 0.0 ± 0.0.

What about the Colon length ([4]; SAHA 10 mg/kg p.o. daily without DSS, water 10.5 ± 0.3) of the same molecule?
Its Colon length is 10.1 ± 0.2 cm.

What about the “effect on dextran-induced colitis (overall conclusion)” value ([4]; SAHA 10 mg/kg p.o. daily, days 1 to 10) of the same molecule?
The value was “effectively counteracts dextran-induced colitis”.
